Measurements: ChEMBL document CHEMBL1201862, “PubChem BioAssay data set” (2004)
Calls of active or inactive are those of the source.

How the values were obtained:
[1] = cytotoxicity in KRAS-transformed pancreatic duct cells, primary screen, cell-based, fluorescence, HTS (AID 431); assay type: functional; settings: Homo sapiens;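 also: cell line used: HPDE-C7K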
[2] = cytotoxicity in HPDE-C7 cells, cell-based, fluorescence, HTS (AID 430); assay type: functional; settings: Homo sapiens
Cytochrome P450 2C9 = Cytochrome P450 2C9 (Homo sapiens, UniProt P11712)
Cytochrome P450 3A4 = Cytochrome P450 3A4 (Homo sapiens, UniProt P08684);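 also: CYP3A4 tested as one member of a cytochrome P450 panel screen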
Cytochrome P450 2C19 = Cytochrome P450 2C19 (Homo sapiens, UniProt P33261); assay: Cytochrome panel assay with activity outcomes. Panel member name: p450-cyp2c19 Compounds with AC50 equal or less than 10 uM are considered active; assay type: functional; settings: read-out: AC50
[3] = biological target: T1, Mannose-6-phosphate isomerase (Homo sapiens, UniProt P34949); assay: human PMI inhibitors, high substrate, primary screen, biochemical, fluorescence intensity, high mannose 6-phosphate (AID 1220)
T1 sequence (P34949 whole entry): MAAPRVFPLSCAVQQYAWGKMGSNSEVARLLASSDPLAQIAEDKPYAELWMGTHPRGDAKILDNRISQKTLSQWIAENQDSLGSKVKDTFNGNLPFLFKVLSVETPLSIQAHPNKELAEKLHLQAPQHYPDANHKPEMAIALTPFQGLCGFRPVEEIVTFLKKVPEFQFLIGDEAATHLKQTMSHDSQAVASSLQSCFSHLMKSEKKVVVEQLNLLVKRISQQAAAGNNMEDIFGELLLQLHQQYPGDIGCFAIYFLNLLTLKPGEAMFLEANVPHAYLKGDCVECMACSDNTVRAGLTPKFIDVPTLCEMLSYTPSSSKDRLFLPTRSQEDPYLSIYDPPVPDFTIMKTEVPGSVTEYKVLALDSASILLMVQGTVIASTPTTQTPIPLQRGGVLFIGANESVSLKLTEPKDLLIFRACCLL

[4] = biological target: Luciferin 4-monooxygenase (Photinus pyralis, UniProt P08659); assay: firefly luciferase enzyme inhibitors, dose response, biochemical, luminescence (AID 1891)
[5] = A Cell Based Secondary Assay To Explore Cytotoxicity of Compounds that Sensitize Mycobacterium Tuberculosis to Beta-Lactam Antibiotics.; assay type: functional
[6] = biological target: Glyceraldehyde-3-phosphate dehydrogenase (Homo sapiens, UniProt P04406)
Bcl-2-related protein A1 [7] = biological target: T2, Bcl-2-related protein A1 (Mus musculus, UniProt Q07440); assay: Bfl-1 inhibitors blocking BH3 peptide binding, confirmation, biochemical, TR-FRET, mouse Bfl-1 (AID 621);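 also: TR-FRET binding of GST-Bfl-1 to FITC-labelled Bid peptide via terbium antibody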
T2 sequence (Q07440 whole entry): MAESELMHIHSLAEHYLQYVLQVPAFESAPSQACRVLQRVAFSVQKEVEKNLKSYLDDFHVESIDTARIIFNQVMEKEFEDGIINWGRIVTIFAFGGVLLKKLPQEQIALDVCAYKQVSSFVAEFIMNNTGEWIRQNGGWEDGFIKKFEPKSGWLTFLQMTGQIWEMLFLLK

Bcl-2-related protein A1 [8] = biological target: T2, Bcl-2-related protein A1; assay: Bfl-1 binding inhibitors, SAR follow-up, biochemical, fluorescence polarization (AID 1070)
[9] = growth suppression of PTEN-null colon cells, dose response, cell-based, HCT116 PTEN knockout (AID 1047); assay type: functional;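 also: HCT116 colon tumor cells with PTEN knocked out; cells exposed to compound for 60 hours before readout; potency for loss of cell viability measured by luminescence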
[10] = inhibitors of clade B AD8 Env fusion, dose response, cell-based, cherry-pick (AID 652062); assay type: functional;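 also: luciferase signal from cell-cell fusion driven by HIV-1 clade B AD8 Env; potency is for inhibitors of fusion seen as a drop in luminescence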
[11] = ZM109 Env clade C HIV-1 fusion inhibitors, dose response, HeLa effector, CEM target cells, luciferase, cherry-pick (AID 652058); assay type: functional, cell-based
[12] = CEM21 lymphoblast cell cytotoxicity, dose response, cytotoxicity control for viral fusion inhibitor project, CellTiter-Glo luminescence, cherry-picked (AID 652042); assay type: functional, cell-based;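 also: potency for signal decrease meaning cytotoxicity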
[13] = off-target signal loss in HeLa-CEM21 co-culture – HeLa F-luc CTL cells, cherry-picked, counter-screen for HIV-1 Env fusion inhibitor project, dose response (AID 652040); assay type: functional, cell-based;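 also: potency for signal decrease marking cytotoxic or nonspecific inhibition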
[14] = growth suppression of beta-catenin-knockout colon cells, dose response, cell-based, HCT116, human colon tumor (AID 1045); assay type: functional;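 also: HCT116 colon tumor cells with beta catenin knocked out; cells exposed to compound for 60 hours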
cells = assay type: functional
[15] = biological target: Ras and Rab interactor 1/Tyrosine-protein kinase ABL1 (Homo sapiens, UniProt P00519+Q13671); assay type: functional;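 also: biochemical TR-FRET dose-response test measuring inhibition of binding between Rin1 and Abl proteins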
[16] = Vero cell cytotoxicity, dose response, cytotoxicity control for Vif-APOBEC3G degradation inhibitor project, Vero cells (AID 1117358); assay type: functional; settings: Human immunodeficiency virus 1, Vero
[17] = miR-122 activators in hepatoma reporter cells, dose response, cell-based, Huh7 psiCHECK-miR122, Renilla luciferase, cherry-picked (AID 651956); assay type: functional;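 also: huh7 hepatoma cells stably carrying a psiCHECK-2 miR-122 sensor plasmid; renilla luciferase signal reporting endogenous miR-122 activity after 48 h compound exposure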
[18] = P. falciparum Dd2 growth inhibitors, dose response, SYBR Green, cherry-picked samples (AID 1159567); assay type: functional, cell-based
[19] = HepG2 cell cytotoxicity, dose response, cytotoxicity control, cherry-picked samples (AID 1159577); assay type: functional, cell-based
[20] = LGR2 antagonists, dose response, cell-based, HEK293, CRE-luciferase reporter, cherry pick, set 2 (AID 743343); assay type: functional;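 also: transfected cells were stimulated with diluted bursicon conditioned medium after compound addition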
[21] = MC4R antagonists, dose response, counter-screen for LGR2 antagonist project, cell-based, plate reader, cherry pick (AID 743444); assay type: functional;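 also: transfected HEK 293 cells stimulated with alpha-MSH peptide; potency of inhibitors of the alpha-MSH evoked signal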
[22] = inhibitors of HIV Env-driven cell fusion, dose response, cherry-pick (AID 652057); assay type: functional, cell-based

Cytochrome P450 3A4, sequence (P08684 whole entry): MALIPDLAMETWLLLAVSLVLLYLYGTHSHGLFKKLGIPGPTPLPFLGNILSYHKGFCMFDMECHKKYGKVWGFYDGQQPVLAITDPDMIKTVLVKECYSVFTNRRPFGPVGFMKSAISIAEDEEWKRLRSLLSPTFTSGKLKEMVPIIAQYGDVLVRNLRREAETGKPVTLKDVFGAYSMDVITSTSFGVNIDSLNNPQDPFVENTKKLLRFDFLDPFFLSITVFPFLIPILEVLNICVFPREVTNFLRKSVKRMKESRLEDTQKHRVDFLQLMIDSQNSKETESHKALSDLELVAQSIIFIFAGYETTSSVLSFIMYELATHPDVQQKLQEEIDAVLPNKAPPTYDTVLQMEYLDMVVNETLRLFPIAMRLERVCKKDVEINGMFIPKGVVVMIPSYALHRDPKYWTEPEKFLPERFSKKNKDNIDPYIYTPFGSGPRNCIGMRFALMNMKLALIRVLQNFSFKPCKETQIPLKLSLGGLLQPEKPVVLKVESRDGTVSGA
Ras and Rab interactor 1/Tyrosine-protein kinase ABL1, sequence (P00519 whole entry): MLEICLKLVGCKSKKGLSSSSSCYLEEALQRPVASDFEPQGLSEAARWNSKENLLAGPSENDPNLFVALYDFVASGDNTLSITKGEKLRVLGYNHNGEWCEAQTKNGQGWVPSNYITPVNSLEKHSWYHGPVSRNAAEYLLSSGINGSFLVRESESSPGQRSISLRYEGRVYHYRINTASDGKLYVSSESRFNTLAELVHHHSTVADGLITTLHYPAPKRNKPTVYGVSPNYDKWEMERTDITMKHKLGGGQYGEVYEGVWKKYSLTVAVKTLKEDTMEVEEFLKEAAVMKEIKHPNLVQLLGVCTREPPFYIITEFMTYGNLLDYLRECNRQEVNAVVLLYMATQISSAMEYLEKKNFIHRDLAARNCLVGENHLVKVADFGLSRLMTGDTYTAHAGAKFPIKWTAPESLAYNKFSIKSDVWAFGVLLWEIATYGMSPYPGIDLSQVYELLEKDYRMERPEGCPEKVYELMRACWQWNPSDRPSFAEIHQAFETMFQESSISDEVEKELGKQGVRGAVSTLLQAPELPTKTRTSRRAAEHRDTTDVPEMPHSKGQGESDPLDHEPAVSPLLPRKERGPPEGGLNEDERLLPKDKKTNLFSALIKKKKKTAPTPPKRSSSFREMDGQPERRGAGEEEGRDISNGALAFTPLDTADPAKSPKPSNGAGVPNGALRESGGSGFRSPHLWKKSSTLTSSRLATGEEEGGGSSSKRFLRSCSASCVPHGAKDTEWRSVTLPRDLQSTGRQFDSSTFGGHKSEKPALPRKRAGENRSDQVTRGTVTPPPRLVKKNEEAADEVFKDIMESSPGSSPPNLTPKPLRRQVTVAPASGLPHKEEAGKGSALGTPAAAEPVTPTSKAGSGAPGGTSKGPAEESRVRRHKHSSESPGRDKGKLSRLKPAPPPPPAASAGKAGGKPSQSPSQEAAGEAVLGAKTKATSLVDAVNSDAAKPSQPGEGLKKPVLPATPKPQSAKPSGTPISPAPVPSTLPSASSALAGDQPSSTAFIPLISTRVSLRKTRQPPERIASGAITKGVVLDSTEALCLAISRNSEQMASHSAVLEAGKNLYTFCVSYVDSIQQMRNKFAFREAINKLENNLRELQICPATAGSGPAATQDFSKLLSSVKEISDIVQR
Ras and Rab interactor 1/Tyrosine-protein kinase ABL1, sequence (Q13671 whole entry): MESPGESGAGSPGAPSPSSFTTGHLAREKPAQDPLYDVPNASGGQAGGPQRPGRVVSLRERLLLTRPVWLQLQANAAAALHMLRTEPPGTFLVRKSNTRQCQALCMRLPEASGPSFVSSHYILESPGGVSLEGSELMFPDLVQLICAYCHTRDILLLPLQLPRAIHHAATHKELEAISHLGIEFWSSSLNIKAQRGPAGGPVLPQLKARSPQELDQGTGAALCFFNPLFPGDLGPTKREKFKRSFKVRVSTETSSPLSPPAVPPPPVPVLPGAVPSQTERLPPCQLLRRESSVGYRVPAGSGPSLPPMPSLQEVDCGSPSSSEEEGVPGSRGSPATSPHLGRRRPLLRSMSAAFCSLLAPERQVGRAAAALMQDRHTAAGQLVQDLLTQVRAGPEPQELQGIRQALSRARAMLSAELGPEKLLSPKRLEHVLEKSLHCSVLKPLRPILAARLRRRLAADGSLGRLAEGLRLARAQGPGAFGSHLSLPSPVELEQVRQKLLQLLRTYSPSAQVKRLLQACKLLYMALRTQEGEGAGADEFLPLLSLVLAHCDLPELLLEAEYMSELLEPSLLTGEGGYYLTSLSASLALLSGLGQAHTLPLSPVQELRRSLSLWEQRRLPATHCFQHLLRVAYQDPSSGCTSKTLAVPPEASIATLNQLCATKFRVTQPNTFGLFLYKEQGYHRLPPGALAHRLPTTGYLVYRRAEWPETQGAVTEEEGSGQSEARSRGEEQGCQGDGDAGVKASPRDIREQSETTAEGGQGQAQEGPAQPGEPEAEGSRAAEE
Cytochrome P450 2C9, sequence (P11712 whole entry): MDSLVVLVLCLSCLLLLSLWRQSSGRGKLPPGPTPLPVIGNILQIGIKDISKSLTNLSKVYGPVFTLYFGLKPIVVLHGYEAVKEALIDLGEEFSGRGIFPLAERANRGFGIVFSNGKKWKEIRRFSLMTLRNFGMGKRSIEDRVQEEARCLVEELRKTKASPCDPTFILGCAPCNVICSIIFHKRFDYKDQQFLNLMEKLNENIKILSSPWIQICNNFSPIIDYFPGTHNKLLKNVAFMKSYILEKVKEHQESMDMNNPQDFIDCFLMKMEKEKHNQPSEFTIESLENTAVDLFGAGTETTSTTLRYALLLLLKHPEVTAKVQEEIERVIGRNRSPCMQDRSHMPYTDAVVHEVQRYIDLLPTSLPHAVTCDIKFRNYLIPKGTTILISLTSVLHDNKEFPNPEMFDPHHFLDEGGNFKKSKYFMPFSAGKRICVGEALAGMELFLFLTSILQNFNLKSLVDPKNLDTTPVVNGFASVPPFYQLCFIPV
Cytochrome P450 2C19, sequence (P33261 whole entry): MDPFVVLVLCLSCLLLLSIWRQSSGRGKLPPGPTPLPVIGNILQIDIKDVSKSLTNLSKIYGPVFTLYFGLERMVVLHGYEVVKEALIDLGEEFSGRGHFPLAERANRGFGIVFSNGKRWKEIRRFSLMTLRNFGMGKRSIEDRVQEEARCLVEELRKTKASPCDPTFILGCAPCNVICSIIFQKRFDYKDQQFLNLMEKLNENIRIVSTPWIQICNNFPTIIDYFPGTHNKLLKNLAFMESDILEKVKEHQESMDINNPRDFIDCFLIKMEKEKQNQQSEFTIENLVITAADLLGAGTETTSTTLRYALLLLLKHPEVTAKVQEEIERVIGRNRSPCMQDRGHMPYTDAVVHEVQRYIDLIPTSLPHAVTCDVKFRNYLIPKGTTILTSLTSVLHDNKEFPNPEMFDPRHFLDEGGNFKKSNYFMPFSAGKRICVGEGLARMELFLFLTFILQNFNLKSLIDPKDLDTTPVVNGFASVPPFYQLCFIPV
Glyceraldehyde-3-phosphate dehydrogenase, sequence (P04406 whole entry): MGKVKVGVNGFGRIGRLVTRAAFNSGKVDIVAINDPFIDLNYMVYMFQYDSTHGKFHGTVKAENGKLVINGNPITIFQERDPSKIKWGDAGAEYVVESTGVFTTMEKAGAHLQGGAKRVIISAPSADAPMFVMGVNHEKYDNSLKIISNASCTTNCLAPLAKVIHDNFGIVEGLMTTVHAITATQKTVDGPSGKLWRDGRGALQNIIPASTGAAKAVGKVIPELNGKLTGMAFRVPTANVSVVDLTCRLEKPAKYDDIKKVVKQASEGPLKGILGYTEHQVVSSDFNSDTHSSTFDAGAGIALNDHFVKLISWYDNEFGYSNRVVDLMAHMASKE
Luciferin 4-monooxygenase, sequence (P08659 whole entry): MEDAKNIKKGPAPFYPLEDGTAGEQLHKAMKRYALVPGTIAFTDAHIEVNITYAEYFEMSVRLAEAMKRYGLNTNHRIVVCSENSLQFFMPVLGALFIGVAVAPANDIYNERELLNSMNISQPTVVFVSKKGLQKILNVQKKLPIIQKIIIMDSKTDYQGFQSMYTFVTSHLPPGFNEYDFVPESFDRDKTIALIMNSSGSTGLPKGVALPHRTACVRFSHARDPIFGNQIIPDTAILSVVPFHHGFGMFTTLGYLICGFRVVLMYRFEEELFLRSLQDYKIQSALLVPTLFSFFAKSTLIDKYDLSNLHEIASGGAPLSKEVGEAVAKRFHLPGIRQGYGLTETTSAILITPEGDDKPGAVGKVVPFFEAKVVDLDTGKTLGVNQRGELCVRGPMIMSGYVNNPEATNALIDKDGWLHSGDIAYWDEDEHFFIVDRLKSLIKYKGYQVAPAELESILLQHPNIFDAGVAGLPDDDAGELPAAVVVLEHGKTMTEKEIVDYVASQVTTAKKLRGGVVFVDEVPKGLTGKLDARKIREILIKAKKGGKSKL

N#CC1=C(N)NC(SCc2ccc(Cl)cc2)=C(C#N)C12CCCCC2
EC50 [1]: 6.43 µM (active)
EC50 [2]: 8.84 µM (active)

CCC(=O)N1CCN(c2ccc(NC(=O)c3cccs3)cc2)CC1
AC50 (Cytochrome P450 2C9): inconclusive
AC50 (Cytochrome P450 3A4): inconclusive
AC50 (Cytochrome P450 2C19): 0.501 µM (inconclusive)

COc1cc(CNc2ccc3[nH]c(=O)[nH]c3c2)ccc1OCC(=O)NC(C)(C)C
IC50 [3]: > 50 µM (not active)
EC50 [4]: > 112 µM (not active)

O=C(OC1CCN(c2ncc(C(F)(F)F)cc2Cl)CC1)c1ccccc1
AC50 (Cytochrome P450 3A4): inconclusive

CCOC(=O)c1ccccc1NC(=O)C1COc2ccccc2O1 (stereo unspecified)
CC50 [5]: > 40 µM (active)

Cc1ccc(NC2=C(Cl)C(=O)N(c3ccc(C)cc3)C2=O)cc1
IC50 [6]: > 100 µM (not active)
IC50 (Bcl-2-related protein A1 [7]): 2.54 µM (active)
IC50 (Bcl-2-related protein A1 [8]): 1.7 µM (active)

CN(C)S(=O)(=O)c1ccc(C(=O)Nc2nc(-c3cccs3)cs2)cc1
EC50 [9]: 79.7 µM (active)
AC50 [10]: 9.43 µM (active)
AC50 [11]: 0.879 µM (active)
AC50 [12]: 67.7 µM (active)
AC50 [13]: > 70 µM (inactive)
EC50 [14]: 102 µM (active)

COC(=O)c1ccc(CSc2nnc(-c3ccncc3)o2)o1
IC50 (cells): 39.6 µM (active)
IC50 [15]: 11 µM (inactive)

CCCCN1C(=O)N(C)C2NC(=O)NC21 (stereo unspecified)
IC50 [15]: 3 µM (active)

CCOC(=O)C1=C(N)n2c(s/c(=C/c3ccco3)c2=O)=C(C(=O)OC)C1c1ccco1 (stereo unspecified)
CC50 [16]: > 40 µM (active)

C[C@H](CO)N1C[C@H](C)[C@H](CN(C)C(=O)Nc2ccc3c(c2)OCO3)Oc2ncc(-c3cccc(C(F)(F)F)c3)cc2C1=O
AC50 [17]: 14.1 µM (active)

COc1ccc(C#Cc2ccc([C@@H]3[C@@H](CO)N4CCCCN(C(=O)Nc5ccccc5)C[C@H]34)cc2)cc1
AC50 [17]: 6.46 µM (active)
AC50 [18]: 1.29 µM (active)
AC50 [19]: 11.4 µM (active)

Cc1ccccc1S(=O)(=O)N1[C@H](C#N)[C@H](c2ccc(C#CC3CCCCC3)cc2)[C@H]1CO
AC50 [20]: 10.7 µM (active)
AC50 [21]: 13 µM (active)

CCN(CC)c1ccc(/C=N/N2C(C)CCCC2C)c(O)c1 (stereo unspecified)
AC50 [22]: 2.22 µM (active)
AC50 [12]: 48.3 µM (active)
AC50 [13]: > 70 µM (inactive)
